Experiments:
[1] = system: suspension cells from Siraitia grosvenorii; assay: Cell viability evaluation by viable cell monitor (viable cell capacitance, viability preservation rate after cryopreservation); type: cell-based; conditions: for A1 (viable cell capacitance of the pre-treated cell): before freezing; for A3 (basal capacitance of the cell): cell death totally; for A2 (viable cell capacitance after resuscitation) / Viability preservation rate: -80° C. 24 h
Procedure: Taking a certain number of cells in the logarithmic growth phase for centrifugation (or sedimentation) and adding an equal amount of pre-treatment fluids after removing the supernatant. […] Pre-treated cells are centrifuged. Adding cryoprotectants after removing the supernatant and incubating at 0-4° C. and 110 rpm for 45 min. After incubation, the cells are first cooled at −20° C. for 40 min and then cooled in the −80° C. cryogenic refrigerator. Frozen cells are thawed in a water bath at 39° C., for 2-3 min. […] Mixing evenly the suspension cells and then measuring the capacitance of viable cells with a viable cell monitor. The viable cell capacitance of the pre-treated cell is denoted as A1; the viable cell capacitance after resuscitation is denoted as A2; and the basal capacitance of the cell is denoted as A3 (capacitance when cell death totally). […] The basic capacitance of cells: the cell suspension is boiled in boiling water for 1 h, and then subjected to ultrasonication for 40 min. The capacitance measured is the basic capacitance.

[2] = system: suspension cells from Siraitia grosvenorii; assay: Measurement of mitochondrial activity (TTC) after cryopreservation; type: cell-based; conditions: for TTC value score: per-level statistic of Table 1; for TTC value/100 mg of cells: -80° C. 24 h
Procedure: After mixing evenly, performing dark culture at 25° C. for 16 h. After the dark culture, the supernatant is removed by centrifugation and the cells are washed with distilled water three times. Adding with 4 mL of methanol and placing in a 60° C. water bath for 50 min, gently blow twice with a pipette tip until the cells have detached to colourless.

[3] = Siraitia grosvenorii, 45 min, 5 %
[4] = Siraitia grosvenorii, 45 min, 10 %
[5] = 0.2 M sucrose as pre-treatment agent, cryoprotectant liquid medium+10% DMSO+10% sucrose, compared with the control without pre-treatment
[6] = 0.2 M sucrose pre-treatment time 1 h
[7] = 0.2 M sucrose pre-treatment time 1 h, liquid medium+10% DMSO+10% sucrose
[8] = 0.2 M sucrose pre-treatment time 2 h
[9] = 0.2 M sucrose pre-treatment time 2 h, liquid medium+10% DMSO+10% sucrose
[10] = 0.2 M sucrose pre-treatment time 5 h
[11] = 0.2 M sucrose pre-treatment time 5 h, liquid medium+10% DMSO+10% sucrose
[12] = 0.2 M sucrose pre-treatment time 9 h
[13] = 0.2 M sucrose pre-treatment time 9 h, liquid medium+10% DMSO+10% sucrose
[14] = 0.2 M sucrose pre-treatment time 22 h
[15] = 0.2 M sucrose pre-treatment time 22 h, liquid medium+10% DMSO+10% sucrose
[16] = 0.2 M sucrose pre-treatment time 46 h
[17] = 0.2 M sucrose pre-treatment time 46 h, liquid medium+10% DMSO+10% sucrose
[18] = pre-treatment agent 0.2M, frozen medium liquid medium+10% DMSO+10% sucrose
[19] = pre-treatment agent 0.35M, frozen medium liquid medium+10% DMSO+10% sucrose
[20] = pre-treatment agent 0.5M, frozen medium liquid medium+10% DMSO+10% sucrose

C[S+](C)[O-] [DMSO, dimethyl sulfoxide]
Viability preservation rate score [1, 3]: 35.90% | Viability preservation rate score [1, 4]: 37.09% | TTC value score ([2]; cryoprotectant level 5%): 0.633 | TTC value score ([2]; cryoprotectant level 10%): 0.792

OC[C@H]1O[C@@](CO)(O[C@H]2O[C@H](CO)[C@@H](O)[C@H](O)[C@H]2O)[C@@H](O)[C@@H]1O [Sucrose, sucrose]
increase of cell viability preservation rate [1, 5]: 29.18% | A1 (viable cell capacitance of the pre-treated cell) [1, 6]: 62.11 pF/cm | A3 (basal capacitance of the cell) [1, 6]: 8.41 pF/cm | A2 (viable cell capacitance after resuscitation) [1, 7]: 14.46 pF/cm | A1 (viable cell capacitance of the pre-treated cell) [1, 8]: 61.68 pF/cm | A3 (basal capacitance of the cell) [1, 8]: 8.78 pF/cm | A2 (viable cell capacitance after resuscitation) [1, 9]: 15.63 pF/cm | A1 (viable cell capacitance of the pre-treated cell) [1, 10]: 61.19 pF/cm | A3 (basal capacitance of the cell) [1, 10]: 11.09 pF/cm | A2 (viable cell capacitance after resuscitation) [1, 11]: 21.21 pF/cm | A1 (viable cell capacitance of the pre-treated cell) [1, 12]: 58.51 pF/cm | A3 (basal capacitance of the cell) [1, 12]: 11.3 pF/cm | A2 (viable cell capacitance after resuscitation) [1, 13]: 25.85 pF/cm | A1 (viable cell capacitance of the pre-treated cell) [1, 14]: 56.48 pF/cm | A3 (basal capacitance of the cell) [1, 14]: 10.43 pF/cm | A2 (viable cell capacitance after resuscitation) [1, 15]: 22.86 pF/cm | A1 (viable cell capacitance of the pre-treated cell) [1, 16]: 45.92 pF/cm | A3 (basal capacitance of the cell) [1, 16]: 10.94 pF/cm | A2 (viable cell capacitance after resuscitation) [1, 17]: 14.60 pF/cm | Viability preservation rate score [1, 3]: 31.15% | Viability preservation rate score [1, 4]: 42.98% | A1 (viable cell capacitance of the pre-treated cell) ([1]; pre-treatment agent 0.2M): 42.25 pF/cm | A3 (basal capacitance of the cell) ([1]; pre-treatment agent 0.2M): 10.00 pF/cm | A2 (viable cell capacitance after resuscitation) [1, 18]: 26.44 pF/cm | A1 (viable cell capacitance of the pre-treated cell) ([1]; pre-treatment agent 0.35M): 30.55 pF/cm | A3 (basal capacitance of the cell) ([1]; pre-treatment agent 0.35M): 8.49 pF/cm | A2 (viable cell capacitance after resuscitation) [1, 19]: 17.01 pF/cm | A1 (viable cell capacitance of the pre-treated cell) ([1]; pre-treatment agent 0.5M): 24.62 pF/cm | A3 (basal capacitance of the cell) ([1]; pre-treatment agent 0.5M): 6.03 pF/cm | A2 (viable cell capacitance after resuscitation) [1, 20]: 11.81 pF/cm | increase of mitochondrial activity (TTC value) [2, 5]: 36.72% | TTC value/100 mg of cells [2, 7]: 0.195 | TTC value/100 mg of cells [2, 9]: 0.201 | TTC value/100 mg of cells [2, 11]: 0.225 | TTC value/100 mg of cells [2, 13]: 0.376 | TTC value/100 mg of cells [2, 15]: 0.319 | TTC value/100 mg of cells [2, 17]: 0.106 | TTC value score ([2]; cryoprotectant level 5%): 0.506 | TTC value score ([2]; cryoprotectant level 10%): 0.847 | TTC value/100 mg of cells [2, 18]: 0.916 | TTC value/100 mg of cells [2, 19]: 0.479 | TTC value/100 mg of cells [2, 20]: 0.232

OC[C@H]1O[C@H](O[C@H]2O[C@H](CO)[C@@H](O)[C@H](O)[C@H]2O)[C@H](O)[C@@H](O)[C@@H]1O [Trehalose, trehalose]
A1 (viable cell capacitance of the pre-treated cell) ([1]; pre-treatment agent 0.2M): 41.05 pF/cm | A3 (basal capacitance of the cell) ([1]; pre-treatment agent 0.2M): 7.77 pF/cm | A2 (viable cell capacitance after resuscitation) [1, 18]: 23.40 pF/cm | Viability preservation rate [1, 18]: 46.97% | A1 (viable cell capacitance of the pre-treated cell) ([1]; pre-treatment agent 0.35M): 34.06 pF/cm | A3 (basal capacitance of the cell) ([1]; pre-treatment agent 0.35M): 7.09 pF/cm | A2 (viable cell capacitance after resuscitation) [1, 19]: 18.80 pF/cm | Viability preservation rate [1, 19]: 43.42% | A1 (viable cell capacitance of the pre-treated cell) ([1]; pre-treatment agent 0.5M): 21.20 pF/cm | A3 (basal capacitance of the cell) ([1]; pre-treatment agent 0.5M): 5.50 pF/cm | A2 (viable cell capacitance after resuscitation) [1, 20]: 10.65 pF/cm | Viability preservation rate [1, 20]: 32.80% | TTC value/100 mg of cells [2, 18]: 0.767 | TTC value/100 mg of cells [2, 19]: 0.841 | TTC value/100 mg of cells [2, 20]: 0.224

OC[C@@H](O)[C@@H](O)[C@H](O)[C@@H](O)CO [sorbitol]
Viability preservation rate score ([1]; cryoprotectant level 5%, per-level statistic of Table 1): 31.20% | Viability preservation rate score ([1]; cryoprotectant level 10%, per-level statistic of Table 1): 40.65% | TTC value score ([2]; cryoprotectant level 5%): 0.652 | TTC value score ([2]; cryoprotectant level 10%): 0.846

Reference: patent US11291200B2, “Application of viable cell monitor to cryopreservation of plant cells” (EAST CHINA UNIVERSITY OF SCIENCE AND TECHNOLOGY, priority 2016, dated 2022)
